# Laboratory results from patent US9676820B2, “Method for inhibiting proliferation of high LIX1L-expressing tumor cell, and tumor cell proliferation-inhibiting peptide” (National University Corporation Hamamatsu University School …, priority 2013, dated 2017).
# Legend:
# [1] = tested on: HL-60 strain; assay: Viable cell counts (Trypan blue staining), HL-60 strain; format: cell-based; details: 5 μM peptide, vs untreated
# Procedure: Specifically, cells plated such that the density thereof became 1×10^4 cells/3.5 cm well for one plate (6 wells/plate) for each cell strain were cultured for one night in a culture solution having the same composition as those of the culture solutions described in the reference examples. After culturing of 1 well out of the 6 wells was completed, Trypan blue staining was performed on the 1 well, and viable cell counts were counted. The remaining 5 wells were cultured after exchanging the culture solution with a liquid mixture of a Lipofectamine (registered trademark) reagent (12.5 μL/well) and a culture solution (2 mL/well) of which the shRNA concentration became 2.5 μg/well. Then, Trypan blue staining was performed on 1 well 24 hours after the exchange of a culture medium, 1 well 48 hours after the exchange of a culture medium, and the remaining 1 well 72 hours after the exchange of a culture medium, and the viable cell counts were counted. As a control, the viable cell counts were measured (untreated) by performing the culturing similarly to the above except that a culture medium was exchanged with a culture solution to which no shRNA was added.
# Specifically, the viable cell counts were measured after culturing the cells similarly to Example 1 except that a 5 μM culture solution containing a control peptide, a peptide 1, or a peptide 2 was used instead of the culture solution (2 mL/well) of which the shRNA concentration was 2.5 μg/well. The viable cell counts were measured (untreated) by performing the culturing similarly to Example 1 using a culture solution containing no peptide 2, as a control.
# [2] = tested on: U937 strain; assay: MTT assay, U937 strain; format: cell-based
# Procedure: Specifically, first, cells plated in a 96-well microplate such that the density thereof became 5×10^3 cells/well were cultured for one night in a culture solution having the same composition as those in the reference examples. Thereafter, the culture solution was exchanged with 100 μL of a culture solution of which the concentration of peptides is 0 μM to 100 μM for culturing for 72 hours. After the culturing, an MTT-containing PBS solution was added to the culture solution, and the mixture was incubated for 4 hours. Then, formazan which was generated by putting 100 μL of isopropanol (containing 34 (v/v) % of hydrochloric acid) into each of the wells was dissolved. The absorbance of each of the wells of the microplate at 570 nm was measured using a microplate reader. As controls, culturing was performed in the same manner except that no peptide was added to the strains, an MTT assay was performed thereon, and the absorbance at 570 nm was measured (untreated).
# Specifically, the cells were cultured for 72 hours similarly to Example 2 except that a peptide to be added to a cell strain was set to peptide 1, 3, or 4, or a control peptide, an MTT assay was performed thereon, and the absorbance at 570 nm was measured.
# In the method for measuring the viable cell counts, cells were cultured for 3 days similarly to Example 1 except that a 25 μM (10 μM for an HL-60 strain, a K562 strain, and a U937 strain) culture solution containing a control peptide or a peptide 1 was used, and the viable cell counts were measured. As a comparison, culturing was performed similarly to the above using a culture solution containing no peptide, and the viable cell counts were measured (untreated).
# In addition, in the method for performing an MTT assay, cells were cultured for 72 hours similarly to Example 2 except that a peptide to be added to a strain was set to a control peptide or a peptide 1 at 25 μM (10 μM for an HL-60 strain, a K562 strain, and a U937 strain), an MTT assay was performed thereon, and the absorbance at 570 nm was measured. As a comparison, culturing was performed similarly to the above using a culture solution containing no peptide, and the MTT assay was performed thereon (untreated).
# [3] = tested on: 293 FLG/LIX1L; assay: Number of colonies formed, 293 FLG/LIX1L (Example 6); format: cell-based; details: peptide 25 μM, cultured for 14 days
# Procedure: Specifically, 293 FLG was plated in one plate (6 wells/plate) and 293 FLG/LIX1L was plated in two plates such that the density of the cells became 1×10^4 cells/3.5 cm well. Among these, one of the plates in which 293 FLG was plated and the plate in which 293 FLG/LIX1L was plated were cultured for 14 days in a 10% vol. % FCS-containing DMEM culture medium. The remaining one of the plates in which 293 FLG/LIX1L was plated was cultured for 14 days in a 10% vol. % FCS-containing DMEM culture medium in which the peptide 1 was made to be included such that the concentration thereof became 25 μM. Each of the wells after the culturing was observed under a microscope, and the number of colonies formed was measured.
# [4] = tested on: MKN45 cell strains; assay: Cancer mouse model transplanted with MKN45 cell strain; format: in vivo; details: nude mice with MKN45 transplant
# Procedure: Rearing of 10 nude male mice (BALB/cAJcl-nu/nu, purchased from CLEA Japan, Inc.) at the age of 7 weeks was started, and MKN45 cell strains separately cultured were transplanted into the mice by being subcutaneously injected thereinto on day 31. The day on which the transplantation was performed was set as day 0, the mice were divided into two groups (peptide 1-administered group and control peptide-administered group) of 5 mice on day 14 of the transplantation, 4 mice were selected among the 5 mice from each group, and the peptide 1 or the control peptide was administered. The remaining one mouse was set as a spare. In the peptide 1-administered group, 100 μL of a 30 μM peptide 1 solution (solution prepared by adding a methylcellulose solution to the solution after the peptide 1 was dissolved in PBS (−)) was subcutaneously injected into a tumor site (site into which the MKN45 cell strain was injected) 4 times every 3 days. In the control peptide-administered group, 100 μL of a 30 μM control peptide solution (solution prepared by adding a methylcellulose solution to the solution after the control peptide was dissolved in PBS (−)) was subcutaneously injected into a tumor site 4 times on the same days as those in the peptide 1-administered group.
# The results in which the points of time (days) at which a peptide solution was administered to each mouse and the volume (mm^3) of a tumor site were temporally measured are shown in FIG. 21. For the volume of the tumor site, the width and the length of the tumor site determined from the appearance of the mouse were measured and calculated using the following formula. [Volume(mm^3) of Tumor Site]=([Width(mm) of Tumor Site]^2×[Length(mm) of Tumor Site])/2
# The “width of tumor site” referred herein means a maximum width of a portion in which the skin has risen due to the tumor and the “length of tumor site” means a maximum length of a portion in which the skin has risen due to the tumor.
# [5] = tested on: 293 FLG/LIX1L; assay: Colony formation assay (agarose), 293 FLG/LIX1L cells (Example 9); format: cell-based; details: 293 FLG/LIX1L/PY136 cells, 14 days
# Procedure: In the colony formation assay, the 293 FLG cells, the 293 FLG/LIX1L cells, and the 293 FLG/LIX1L/PY136 cells were respectively mixed in 10% FCS-containing DMEM culture media, to which 0.4% agarose was added, and the mixtures were gently placed on 0.6% agarose- and 10% FCS-containing DMEM culture media for culturing for 14 days. Thereafter, the influence of LIX1L and PY136 on cell proliferation was evaluated by counting the number of colonies in each well using an optical microscope (manufactured by Zeiss).
compound,measurement,setting,value
"CC(C)[C@H](NC(=O)[C@H](Cc1ccc(O)cc1)NC(=O)[C@H](CS)NC(=O)[C@@H](NC(=O)[C@H](Cc1ccc(O)cc1)NC(=O)[C@@H]1CCCN1C(=O)[C@@H]1CCCN1C(=O)[C@H](CO)NC(=O)[C@H](CC(N)=O)NC(=O)[C@H](CO)NC(=O)[C@@H]1CCCN1C(=O)CCCCCNC(=O)[C@H](CCCNC(=N)N)NC(=O)[C@H](CCCNC(=N)N)NC(=O)[C@H](CCCNC(=N)N)NC(=O)[C@H](CCC(N)=O)NC(=O)[C@H](CCCNC(=N)N)NC(=O)[C@H](CCCNC(=N)N)NC(=O)[C@H](CCCCN)NC(=O)[C@H](CCCCN)NC(=O)[C@H](CCCNC(=N)N)NC(=O)CNC(=O)[C@@H](N)Cc1ccc(O)cc1)C(C)C)C(N)=O [peptide 1, YGRKKRRQRRR-X-PSNSPPYVCYV-NH2]",viable cell counts,[1]; after 72 hours,very small
same,viable cell counts,[1]; after culturing for 24 hours,decreased
same,"absorbance at 570 nm (MTT assay), cell proliferation","[2]; peptide 0 μM to 100 μM, 72 hours",inhibited
same,cell proliferation (viable cell counts and MTT assay),"[2]; peptide 10 μM, 3 days / 72 hours",inhibited
same,number of colonies formed,[3],inhibited
same,body weight,"[4]; 100 μL of 30 μM peptide solution 4 times, vs spare mice given nothing",no particularly significant change
same,volume (size) of the tumor site,[4]; 100 μL of 30 μM peptide solution subcutaneously into tumor site 4 times every 3 days from day 14,rarely changed
same,formation of colonies (colony formation assay),[5],significantly inhibited
